ChEMBL document CHEMBL1140184, “Synthesis and structure-activity relationship studies of highly potent novel oxazolidinone antibacterials” (2008)
Values after ≈ are worked out from the molar mass of the structure shown.

Experiments:
Format in all cases: functional
Staphylococcus aureus [1] = experiment: Antibacterial activity against methicillin-sensitive Staphylococcus aureus Smith by agar dilution method
Staphylococcus aureus [2] = experiment: Antibacterial activity against methicillin-resistant Staphylococcus aureus TK7 by agar dilution method
Streptococcus pneumoniae [3] = experiment: Antibacterial activity against penicillin-susceptible Streptococcus pneumoniae IID553 by agar dilution method
Streptococcus pneumoniae [4] = experiment: Antibacterial activity against penicillin-resistant Streptococcus pneumoniae PR44 by agar dilution method
Enterococcus faecium = experiment: Antibacterial activity against vancomycin-resistant Enterococcus faecium A2280 by agar dilution method
Haemophilus influenzae = experiment: Antibacterial activity against Haemophilus influenzae IID983 by agar dilution method

Row | SMILES | MIC (Staphylococcus aureus [1]) [µg/mL] | MIC (Staphylococcus aureus [2]) [µg/mL] | MIC (Streptococcus pneumoniae [3]) [µg/mL] | MIC (Streptococcus pneumoniae [4]) [µg/mL] | MIC (Enterococcus faecium) [µg/mL] | MIC (Haemophilus influenzae) [µg/mL]
1 | N#Cc1ccc(N2C[C@@H]3[C@H](C2)[C@@]3(C#N)c2ccc(-c3ccc(N4C[C@H](Cn5ccnn5)OC4=O)cc3F)cn2)nc1 | 0.06 (≈ 0.11 µM) | 0.06 (≈ 0.11 µM) | 0.125 (≈ 0.228 µM) | 0.06 (≈ 0.11 µM) | 0.125 (≈ 0.228 µM) | > 2
2 | N[C@]1(c2ccc(-c3ccc(N4C[C@H](Cn5ccnn5)OC4=O)cc3F)cn2)[C@@H]2CNC[C@@H]21 | 1 (≈ 2.3 µM) | 2 (≈ 4.59 µM) | 0.5 (≈ 1.15 µM) | 0.5 (≈ 1.15 µM) | 2 (≈ 4.59 µM) | 32 (≈ 73.5 µM)
3 | CC(=O)NC[C@H]1CN(c2ccc(-c3ccc([C@@]4(C#N)[C@@H]5CNC[C@@H]54)nc3)c(F)c2)C(=O)O1 | 0.125 (≈ 0.287 µM) | 0.125 (≈ 0.287 µM) | 0.125 (≈ 0.287 µM) | 0.06 (≈ 0.138 µM) | 0.25 (≈ 0.574 µM) | 4 (≈ 9.19 µM)
4 | COC(=S)NC[C@H]1CN(c2ccc(-c3ccc([C@@]4(C#N)[C@@H]5CNC[C@@H]54)nc3)c(F)c2)C(=O)O1 | 0.03 (≈ 0.0642 µM) | 0.03 (≈ 0.0642 µM) | 0.03 (≈ 0.0642 µM) | 0.03 (≈ 0.0642 µM) | 0.06 (≈ 0.128 µM) | 0.5 (≈ 1.07 µM)
5 | N#C[C@]1(c2ccc(-c3ccc(N4C[C@H](CNc5ccon5)OC4=O)cc3F)cn2)[C@@H]2CNC[C@@H]21 | 0.125 (≈ 0.271 µM) | 0.125 (≈ 0.271 µM) | 0.25 (≈ 0.543 µM) | 0.25 (≈ 0.543 µM) | 0.5 (≈ 1.09 µM) | > 16
6 | N#C[C@]1(c2ccc(-c3ccc(N4C[C@H](CNC(=O)C5CC5)OC4=O)cc3F)cn2)[C@@H]2CNC[C@@H]21 | 0.5 (≈ 1.08 µM) | 0.25 (≈ 0.542 µM) | 0.25 (≈ 0.542 µM) | 0.25 (≈ 0.542 µM) | 0.5 (≈ 1.08 µM) | 8 (≈ 17.3 µM)
7 | CCC(=O)NC[C@H]1CN(c2ccc(-c3ccc([C@@]4(C#N)[C@@H]5CNC[C@@H]54)nc3)c(F)c2)C(=O)O1 | 0.25 (≈ 0.556 µM) | 0.25 (≈ 0.556 µM) | 0.25 (≈ 0.556 µM) | 0.125 (≈ 0.278 µM) | 0.25 (≈ 0.556 µM) | 8 (≈ 17.8 µM)
8 | N#C[C@]1(c2ccc(-c3ccc(N4C[C@H](CNC(=O)C(F)F)OC4=O)cc3F)cn2)[C@@H]2CNC[C@@H]21 | 0.125 (≈ 0.265 µM) | 0.125 (≈ 0.265 µM) | 0.06 (≈ 0.127 µM) | 0.06 (≈ 0.127 µM) | 0.25 (≈ 0.53 µM) | 2 (≈ 4.24 µM)
9 | N#C[C@]1(c2ccc(-c3ccc(N4C[C@H](Cn5ccnn5)OC4=O)cc3F)cn2)[C@@H]2CNC[C@@H]21 | 0.06 (≈ 0.135 µM) | 0.06 (≈ 0.135 µM) | 0.06 (≈ 0.135 µM) | 0.06 (≈ 0.135 µM) | 0.125 (≈ 0.281 µM) | 2 (≈ 4.49 µM)
10 | N#C[C@]1(c2ccc(-c3ccc(N4C[C@H](Cn5ccnn5)OC4=O)cc3F)cc2F)[C@@H]2CNC[C@@H]21 | 0.25 (≈ 0.541 µM) | 0.125 (≈ 0.27 µM) | 0.25 (≈ 0.541 µM) | 0.25 (≈ 0.541 µM) | 0.25 (≈ 0.541 µM) | 16 (≈ 34.6 µM)
11 | N#C[C@]1(c2c(F)cc(-c3ccc(N4C[C@H](Cn5ccnn5)OC4=O)cc3F)cc2F)[C@@H]2CNC[C@@H]21 | 0.5 (≈ 1.04 µM) | 0.5 (≈ 1.04 µM) | 1 (≈ 2.08 µM) | 1 (≈ 2.08 µM) | 0.25 (≈ 0.52 µM) | > 128
12 | N#CN1C[C@@H]2[C@H](C1)[C@@]2(C#N)c1ccc(-c2ccc(N3C[C@H](Cn4ccnn4)OC3=O)cc2F)cn1 | 0.06 (≈ 0.128 µM) | 0.06 (≈ 0.128 µM) | 0.06 (≈ 0.128 µM) | 0.06 (≈ 0.128 µM) | 0.06 (≈ 0.128 µM) | 2 (≈ 4.25 µM)
13 | N#C[C@]1(c2ccc(-c3c(F)cc(N4C[C@H](Cn5ccnn5)OC4=O)cc3F)cn2)[C@@H]2COC[C@@H]21 | 0.06 (≈ 0.129 µM) | 0.06 (≈ 0.129 µM) | 0.25 (≈ 0.538 µM) | 0.125 (≈ 0.269 µM) | 0.25 (≈ 0.538 µM) | 4 (≈ 8.61 µM)
14 | N#C[C@]1(c2ccc(-c3ccc(N4C[C@H](Cn5ccnn5)OC4=O)cc3F)cn2)[C@@H]2CN(C(=O)CO)C[C@@H]21 | 0.06 (≈ 0.119 µM) | 0.06 (≈ 0.119 µM) | 0.06 (≈ 0.119 µM) | 0.06 (≈ 0.119 µM) | 0.125 (≈ 0.248 µM) | 4 (≈ 7.94 µM)
15 | N#C[C@]1(c2ccc(-c3ccc(N4C[C@H](COc5ccon5)OC4=O)cc3F)cn2)[C@@H]2CNC[C@@H]21 | 0.06 (≈ 0.13 µM) | 0.06 (≈ 0.13 µM) | 0.125 (≈ 0.271 µM) | 0.06 (≈ 0.13 µM) | 0.125 (≈ 0.271 µM) | 4 (≈ 8.67 µM)
16 | CC(=S)NC[C@H]1CN(c2ccc(-c3ccc([C@@]4(C#N)[C@@H]5CNC[C@@H]54)nc3)c(F)c2)C(=O)O1 | 0.06 (≈ 0.133 µM) | 0.03 (≈ 0.0664 µM) | 0.06 (≈ 0.133 µM) | 0.03 (≈ 0.0664 µM) | 0.06 (≈ 0.133 µM) | 2 (≈ 4.43 µM)
17 | COC(=O)NC[C@H]1CN(c2ccc(-c3ccc([C@@]4(C#N)[C@@H]5CNC[C@@H]54)nc3)c(F)c2)C(=O)O1 | 0.125 (≈ 0.277 µM) | 0.125 (≈ 0.277 µM) | 0.125 (≈ 0.277 µM) | 0.125 (≈ 0.277 µM) | 0.125 (≈ 0.277 µM) | 4 (≈ 8.86 µM)
18 | NC[C@]1(c2ccc(-c3ccc(N4C[C@H](Cn5ccnn5)OC4=O)cc3F)cn2)[C@@H]2CNC[C@@H]21 | 4 (≈ 8.9 µM) | 4 (≈ 8.9 µM) | 4 (≈ 8.9 µM) | 8 (≈ 17.8 µM) | 16 (≈ 35.6 µM) | 128 (≈ 285 µM)
19 | N#C[C@]1(c2ccc(-c3ccc(N4C[C@H](Cn5ccnn5)OC4=O)cc3)cn2)[C@@H]2COC[C@@H]21 | 0.06 (≈ 0.14 µM) | 0.06 (≈ 0.14 µM) | 0.125 (≈ 0.292 µM) | 0.125 (≈ 0.292 µM) | 0.25 (≈ 0.583 µM) | 4 (≈ 9.34 µM)
20 | CN1C[C@@H]2[C@H](C1)[C@@]2(C#N)c1ccc(-c2ccc(N3C[C@H](Cn4ccnn4)OC3=O)cc2F)cn1 | 0.06 (≈ 0.131 µM) | 0.06 (≈ 0.131 µM) | 0.06 (≈ 0.131 µM) | 0.06 (≈ 0.131 µM) | 0.25 (≈ 0.544 µM) | 4 (≈ 8.71 µM)
21 | N#C[C@]1(c2ccc(-c3c(F)cc(N4C[C@H](Cn5ccnn5)OC4=O)cc3F)cn2)[C@@H]2CNC[C@@H]21 | 0.125 (≈ 0.27 µM) | 0.125 (≈ 0.27 µM) | 0.125 (≈ 0.27 µM) | 0.125 (≈ 0.27 µM) | 0.25 (≈ 0.539 µM) | 4 (≈ 8.63 µM)
22 | N#C[C@]1(c2ccc(-c3ccc(N4C[C@H](Cn5ccnn5)OC4=O)cc3F)cc2)[C@@H]2CNC[C@@H]21 | 0.125 (≈ 0.281 µM) | 0.06 (≈ 0.135 µM) | 0.125 (≈ 0.281 µM) | 0.06 (≈ 0.135 µM) | 0.25 (≈ 0.562 µM) | 4 (≈ 9 µM)
23 | N#C[C@]1(c2ccc(-c3ccc(N4C[C@H](Cn5ccnn5)OC4=O)cc3F)cn2)[C@@H]2COC[C@@H]21 | 0.06 (≈ 0.134 µM) | 0.06 (≈ 0.134 µM) | 0.06 (≈ 0.134 µM) | 0.06 (≈ 0.134 µM) | 0.25 (≈ 0.56 µM) | 2 (≈ 4.48 µM)
